Here are results for two compounds from patent publication US20160257651A1, “NOVEL COMPOUND WITH ANTIBACTERIAL ACTIVITY” (priority 2013, published 2016).

Assay [1] addresses T1, GyrA (wt) + GyrB (wt) (Staphylococcus aureus, UniProt P20831).
T1 construct: made in house; host or cells: E. coli BL21(DE3)
The experiment in a line: DNA cleavage assay using DNA gyrase. The conditions noted are these: for Ratio of cleaved DNA (%) / Ratio of substrate plasmid DNA (%): GyrA (wt) + GyrB (wt). Format: biochemical. The protocol: (§1) To the culture medium of the resulting transformed Escherichia coli 1 mM isopropyl-8-thiogalactopyranoside (produced by Wako Pure Chemical Industries) was added to induce expression of maltose-binding GyrA(wt), maltose-binding GyrB(wt), or maltose-binding mutant GyrA(S84L), and the bacterium was cultured overnight at 25° C.
Then, each disrupted cell suspension was added to a column filled with an amylose resin covalently bound with maltose (produced by Novagen). A buffer (20 mM Tris-HCl (pH 8.0), 200 mM sodium chloride, 1 mM EDTA) containing 10 mM maltose was added to the column to elute the maltose-binding GyrA(wt), maltose-binding GyrB(wt), and maltose-binding mutant GyrA(S84L).
To each eluate, 4 units/1 mL of the eluate of protease (Factor Xa, produced by Amersham) was added, and the mixture was left standing at 25° C. for 3 hours and 30 minutes to cleave the maltose-binding proteins, GyrA(wt), GyrB(wt), and mutant GyrA(S84L), from the maltose-binding GyrA(wt), maltose-binding GyrB(wt), and maltose-binding mutant GyrA(S84L).
Then, GyrA(wt), GyrB(wt), and mutant GyrA(S84L) were concentrated by using an ultrafiltration unit (YM-50 Filter Unit, produced by Millipore).
The concentrated GyrA(wt), GyrB(wt), and mutant GyrA(S84L) were each suspended in a buffer (35 mM Tris-HCl (pH 7.5), 24 mM potassium chloride, 6 mM magnesium chloride, 1.8 mM spermidine, 0.36 mg/mL bovine serum albumin, 5 mM DTT, 50 volume % glycerol) at a concentration of 1 μg/μL for GyrA(wt), 2 μg/μL for GyrB(wt), or 1 μg/μL for mutant GyrA(S84L).
Levofloxacin was added at a final concentration of […] as control for an index of the enzymatic activity.
The reaction solution was left standing at 25° C. for 30 minutes to allow the reaction. Subsequently, a 6 mass % solution of sodium laurylsulfate (2 μL) and a 5 mg/mL solution of Proteinase K (2 μL, produced by Wako Pure Chemical Industries) were added to the reaction solution, and the mixture was left standing at 37° C. for 30 minutes to inactivate GyrA(wt) and GyrB(wt) bound to DNA.
Then, the whole volume of the reaction solution treated with Proteinase K was subjected to electrophoresis on 1 mass % agarose gel to visualize the resultants of the reaction.
(§2) Then, the total value of the intensities of the bands of “S”, “L”, and “N” was calculated for each concentration, and the result was used as “total DNA amount” (equation 1 mentioned below). Further, the total value of the intensities of the bands of “L” and “N” was also calculated, and the result was used as “amount of cleaved DNA” (equation 2 mentioned below). Then, the ratio (%) of the amount of the substrate plasmid DNA to the total DNA amount was calculated in accordance with the following equation 3, and the ratio (%) of the amount of the cleaved DNA to the total DNA amount was calculated in accordance with the following equation 4.
The DNA cleavage assay is a method for evaluating an inhibitory action of an agent for DNA gyrase by detecting whether or not DNAs cleaved by DNA gyrase are recombined.

Assay [2] has as its target T2, GyrA (S84L) + GyrB (wt) (Staphylococcus aureus, UniProt P20831, S84L).
T2 construct: made in house; host or cells: E. coli BL21(DE3)
Briefly: DNA cleavage assay using DNA gyrase. It counts as biochemical. On the procedure:
as §1
Then, each disrupted cell suspension was added to a column filled with an amylose resin covalently bound with maltose (produced by Novagen). A buffer (20 mM Tris-HCl (pH 8.0), 200 mM sodium chloride, 1 mM EDTA) containing 10 mM maltose was added to the column to elute the maltose-binding GyrA(wt), maltose-binding GyrB(wt), and maltose-binding mutant GyrA(S84L). […]
as §2

The subject of assay [3] is E. coli strain 1708. The experiment in a line: Antibacterial activity against Escherichia coli.
Excerpt: (§3) The numerical values in the tables indicate MIC (mg/L), Res means resistant bacterium, and Sus means susceptible bacterium.
(§4) Antibacterial activities against Escherichia coli of the compounds shown Table 19 were examined by the following method.
(§5) After completion of the culture, the cells were suspended in fresh TBS to prepare a cell suspension showing an absorbance of 0.3 at 578 nm.
For assay [4], the system named is E. coli strain 1709. The experiment in a line: Antibacterial activity against Escherichia coli.
Excerpt: as §3, §4, §5
For assay [5], the system named is E. coli strain 1708 plus PABN. The experiment in a line: Antibacterial activity against Escherichia coli in combination with efflux pump inhibitor PAβN. The conditions noted are these: E coli plus PABN 40 mg/L, strain 1708, Quinolone Res.
Excerpt: as §3, §4, §5
Assay [6] concerns E. coli strain 1709 plus PABN. The assay is described as above. The settings on record: E coli plus PABN 40 mg/L, strain 1709, Quinolone Sus.
Excerpt: as §3, §4, §5

Each structure is given as a SMILES string. Values after ≈ are worked out from the molar mass of the structure shown. Values joined by “and” are separate entries in the source; they are usually repeats but may differ in a detail not shown here. Equal entries are not always repeated.

For the compound `O=c1cc(CO)c2cc(F)c(-c3ccc(O)cc3)cc2n1C1CC1` [J-131CP, 1-cyclopropyl-6-fluoro-4-(hydroxymethyl)-7-(4-hydroxyphenyl)-1,2-dihydroquinolin-2-one], the “Ratio of cleaved DNA (%)” value is reported as 12% in assay [1] (concentration 0.125 μg/mL); 19% in assay [1] (concentration 0.25 μg/mL); 23% in assay [1] (concentration 0.5 μg/mL); 47% in assay [1] (concentration 1 μg/mL); 77% in assay [1] (concentration 2 μg/mL); 81% in assay [1] (concentration 4 μg/mL). Besides, the “Ratio of substrate plasmid DNA (%)” value in assay [1] (concentration 0.125 μg/mL) stood at 88%; in assay [1] (concentration 0.25 μg/mL), 81%; in assay [1] (concentration 0.5 μg/mL) it was 77%; in assay [1] (concentration 1 μg/mL), 53%; in assay [1] (concentration 2 μg/mL), 23%; in assay [1] (concentration 4 μg/mL), 19%. In addition, the IC50 (commonly the point on the concentration scale where inhibition reaches its midpoint) in assay [1] (IC50, GyrA(wt) and GyrB(wt)) is 6.15 µM and 6.2 µM; in assay [2] (IC50, GyrA (S84L) + GyrB (wt), calculated from the ratio of cleaved DNA), 3.07 µM; in assay [2] (IC50, GyrA(S84L) and GyrB(wt)) it was 3.1 µM. Further, the MIC (as a rule, the lowest concentration found to suppress growth) in assay [3] is 128 µg/mL (≈ 393 µM); in assay [4], 8 µg/mL (≈ 24.6 µM); in assay [5], 0.25 mg/L; in assay [6] it was “≦0.06 mg/L”.
On to `C[C@H]1COc2c(N3CCN(C)CC3)c(F)cc3c(=O)c(C(=O)O)cn1c23` [LVX, levofloxacin], for which, in assay [1] (concentration 16 μg/mL), the “Ratio of cleaved DNA (%)” value came to 78% and the “Ratio of substrate plasmid DNA (%)” value came to 22%.
